Measurements taken from patent US6372740B1, “2-aryl-8-oxodihydropurine derivative, process for the producing the same, medicinal compositions containing the same, and intermediates thereof” (Dainippon Pharmaceutical Co., Ltd., priority 1997, dated 2002).
pIC50: −log10 of the molar value.

Columns and labels:
BZω3 receptor = biological target: T1, BZω3 receptor (Rattus norvegicus, UniProt P16257); assay: BZω3 (peripheral) benzodiazepine receptor binding assay, [3H] 4'-chlorodiazepam (Ro 5-4864); conditions: rat kidney membrane, [3H] Ro 5-4864 0.5 nM, 150 minutes at 0° C.; read-out: ω3 IC50
T1 construct: from tissue; host or cells: rat (Wistar) kidney membrane fraction
Protocol: Experiment 1: Central (ω1,ω2) and Peripheral (ω3) Benzodiazepine Receptor Binding Assays
BZω1 and BZω2 receptor binding assays and the preparation of receptor membrane fractions therefor were carried out according to the method of Stephens, D. N. et al. [cf., J. Pharmacol. Exp. Ther., 253, 334-343 (1990)], and BZω3 receptor binding assay and the preparation of receptor membrane fraction therefor were done according to the method of Schoemaker, H. [cf, J. Pharmacol. Exp. Ther., 225, 61-69 (1983)] each with slight modification.
Receptor membrane fractions for ω1, ω2 and ω3 were prepared from the cerebellum (ω1), spinal cord (ω2) or kidney (ω3) in 7-8 week old male rats of Wistar strain, respectively, by the procedure described below.
After the cerebellum or spinal cord was homogenized with 20 volumes of ice-cold 50 mM Tris-citrate buffer (pH 7.1), the homogenate was centrifuged for 15 minutes at 40,000 g. The pellet obtained was washed 4 times by the same procedure, and frozen and stored for 24 hours at −60° C. The resulting pellet, after being thawed, washed with the buffer and centrifuged, was suspended in the buffer I for the binding assay (50 mM Tris-HCl buffer containing 120 mM NaCl, 5 mM KCl, 2 mM CaCl2 and 1 mM MgCl2; pH 7.4) and the suspension thus obtained (containing 1 g wet tissue/40 ml) was used for the BZω1 and BZω2receptor binding assays. On the other hand, the kidney was homogenized with 20 volumes of the ice-cold buffer II for the binding assay (50 mM Na-K phosphate buffer containing 100 mM NaCl; pH 7.4), and the mixture was filtered through 4 sheets of gauze, and centrifuged for 20 minutes at 40,000 g. The pellet obtained was suspended in the buffer II and the suspension (containing 1 g wet tissue/100 ml) was used for the binding assay as BZω3 receptor membrane source.
[^3H] Flumazenil (Ro 15-1788) (final concentration: 0.3 nM for ω1, and 1 nM for ω2) and flunitrazepam (final concentration: 10 μM) were used for the BZω1 or BZω2 receptor binding assays as the isotope-labeled and unlabeled ligands, respectively. For the BZω3 receptor binding assay, [^3H] 4′-chlorodiazepam (7-chloro-1,3-dihydro-1-methyl-5-(4-chlorophenyl)-2H-1,4-diazepin-2-one) (Ro 5-4864) (final concentration: 0.5 nM) and diazepam (final concentration: 100 μM) were used as the isotope-labeled and unlabeled ligands, respectively. Incubation was performed for 30 minutes at 37° C. in the BZω1 or BZω2 receptor binding assays, and for 150 minutes at 0° C. in the BZω3 receptor binding assay. The BZω1 or BZω2 receptor binding assays were carried out in the presence of bicuculline (final concentration: 100 μM).
The binding assay was performed by the following procedure. After adding each test compound at certain known concentrations, a [^3H] ligand, and the buffer I or II to each test tube, each assay was started by addition of membrane preparation (total volume of 1 ml). After incubation, the assay was terminated by filtration with suction through a Whatman GF/B glass fiber filter using a cell harvester (Brandel, USA). The filters were rapidly washed 3 times with 5 ml of ice-cold 50 mM Tris-HCl buffer (pH 7.7) for ω1 and ω2, or the buffer II for ω3, and transferred to scintillation vials containing 10 ml liquid scintillation cocktail (ACS-II, Amersham, USA). After being allowed to stand for a specific period, retained radioactivity was counted by a liquid scintillation spectrometer. Specific binding of [^3H] ligands was calculated as the difference between amounts of radioactivity bound in the presence and absence of excess unlabeled ligands. The concentration of the test compounds causing 50% inhibition of specific binding of the [3H] ligand (IC50) was determined by probit analysis.

Structure (SMILES)	pIC50 (BZω3 receptor)	melting point
CCN(Cc1ccccc1)C(=O)Cn1c(=O)n(C)c2nc(-c3ccc(F)cc3)ncc21 [Example 56]	8.85	155 to 157 °C
COc1ccc(CN(C)C(=O)Cn2c(=O)n(C)c3nc(-c4ccccc4)ncc32)cc1 [Example 73]	8.77	174 to 176 °C
CCN(Cc1cccc(F)c1)C(=O)Cn1c(=O)n(C)c2nc(-c3ccccc3)ncc21 [Example 75]	8.89	144 to 145 °C
CCCN(CCC)C(=O)Cn1c(=O)[nH]c2cnc(-c3ccc(F)cc3)nc21 [Example 81]	8.30	213 to 215 °C
CCCN(CCC)C(=O)Cn1c(=O)[nH]c2cnc(-c3ccc([N+](=O)[O-])cc3)nc21 [Example 83]	8.89	256 to 258 °C
CCN(Cc1ccccc1)C(=O)Cn1c(=O)[nH]c2cnc(-c3ccc(OC)cc3)nc21 [Example 94]	8.57	216 to 218 °C
CN(C(=O)Cn1c(=O)[nH]c2cnc(-c3ccccc3)nc21)c1cccc(Cl)c1 [Example 99]	8.85	234 to 236 °C
COc1ccc(N(C)C(=O)Cn2c(=O)[nH]c3cnc(-c4ccccc4)nc32)cc1 [Example 101]	8.89	238 to 240 °C
CCN(Cc1ccccc1)C(=O)Cn1c(=O)n(CC)c2cnc(-c3ccc(Cl)cc3)nc21 [Example 151]	8.64	157 to 158 °C
CCN(C(=O)Cn1c(=O)n(C)c2cnc(-c3ccccc3)nc21)c1ccccc1 [Example 166]	8.92	180 to 181 °C
CCCN(C(=O)Cn1c(=O)n(CC)c2cnc(-c3ccccc3)nc21)c1ccccc1 [Example 170]	8.74	151 to 152 °C
CCn1c(=O)n(CC(=O)N(C)c2ccccc2)c2nc(-c3cccnc3)ncc21 [Example 172]	8.46	199 to 200 °C

The next compounds have a higher pIC50 (BZω3 receptor) than those just listed; values first:

pIC50 (BZω3 receptor)	melting point	Structure (SMILES)
8.96	205 to 207 °C	CCn1c(=O)n(CC(=O)N(C)c2cccc(Cl)c2)c2nc(-c3ccccc3)ncc21 [Example 161]
8.96	173 to 175 °C	CCn1c(=O)n(CC(=O)N(C)c2ccc(Cl)cc2)c2nc(-c3ccccc3)ncc21 [Example 162]
9.00	166 to 167 °C	CCN(Cc1ccc(F)cc1)C(=O)Cn1c(=O)n(C)c2nc(-c3ccccc3)ncc21 [Example 74]
9.01	140 to 141 °C	CCCN(CCC)C(=O)Cn1c(=O)n(C)c2cnc(-c3ccc(F)cc3)nc21 [Example 113]
9.01	157 to 158 °C	CCCN(CCC)C(=O)Cn1c(=O)n(C)c2cnc(-c3ccc(OC)cc3)nc21 [Example 114]
9.06	147 to 149 °C	CCn1c(=O)n(CC(=O)N(C)Cc2ccccc2)c2nc(-c3ccccc3)ncc21 [Example 140]
9.08	112 to 115 °C	CCN(Cc1ccccc1)C(=O)Cn1c(=O)n(C)c2nc(-c3ccccc3)ncc21 [Example 54]
9.09	134 to 136 °C	CCN(Cc1ccccc1)C(=O)Cn1c(=O)n(CC)c2cnc(-c3ccccc3)nc21 [Example 150]
9.10	237 to 238 °C	CCN(C(=O)Cn1c(=O)[nH]c2cnc(-c3ccccc3)nc21)c1ccccc1 [Example 103]
9.17	202 to 203 °C	CN(C(=O)Cn1c(=O)n(C)c2cnc(-c3ccccc3)nc21)c1ccccc1 [Example 156]
9.18	169 to 170 °C	CN(Cc1ccccc1)C(=O)Cn1c(=O)n(C)c2cnc(-c3ccccc3)nc21 [Example 136, N-benzyl-7,8-dihydro-N-methyl-7-methyl-8-oxo-2-phenyl-9H-purin-9-acetamide]
9.37	198 to 199 °C	CN(Cc1ccccc1F)C(=O)Cn1c(=O)n(C)c2nc(-c3ccccc3)ncc21 [Example 71]
